Source: patent US20230295152A1 (SENDA BIOSCIENCES, INC., priority 2019, published 2023)
In brackets after ≈: the same amount, converted by molar mass. Like-named read-outs stand apart in the source and are kept apart here.

Assays:
[1] = Solubility Determination Assay in PBS pH 1.6 and pH 7.4; format: physicochemical; conditions: PBS buffer, aqueous buffer, kinetic from dmso stock
Method: The stock solutions of test compounds and control compound progesterone were prepared in DMSO at the concentrations of 10 mM. 15 μL of stock solution (10 mM) of each sample was placed in order into their proper 96-well rack. 485 μL of PBS pH 1.6 and pH 7.4 were added into each vial of the cap-less Solubility Sample plate. The assay was performed in singlet. One stir stick was added to each vial and then the vial was sealed using a molded PTFE/Silicone plug. […] After completion of the 2 hours, plugs were removed and the stir sticks were removed using a big magnet. The samples from the Solubility Sample plate were transferred into the filter plate. Using the Vacuum Manifold, all the samples were filtered. An aliquot of 5 μL was taken from the filtrate followed by addition of 495 μL of a mixture of H2O and acetonitrile containing internal standard (1:1). A certain proportion of ultrapure water was used to dilute the diluent according to the peak shape. The dilution factor was changed according to the solubility values and the LC-MS signal response.
From the 10 mM DMSO STD plate, 6 μL was transferred into the remaining empty plate, and then 194 μL of DMSO were added to that plate to have a STD concentration of 300 μM. From the 300 μM DMSO STD plate, 5 μL were transferred into the remaining empty plate, and then 495 μL of a mixture of H2O and acetonitrile containing internal standard (1:1) were added to that plate to have a final STD concentration of 3 μM. A certain proportion of ultrapure water was used to dilute the diluent according to the peak shape. The concentrations of the standard samples were changed according to the LC-MS signal response.
The plate was placed into the well plate autosampler. The samples were evaluated by LC-MS/MS analysis.
All calculations were carried out using Microsoft Excel.
The filtrate was analyzed and quantified against a standard of known concentration using LC coupled with mass spectral peak identification and quantitation. Solubility values of the test compound and control compound were calculated as follows: […]
Any value of the compounds that was not within the specified limits was rejected and the experiment was repeated.
“+++” indicates a solubility value equal to or greater than 1 μM, “++” indicates a solubility value between 0.1 and 1 μM, and “+” indicates a solubility value less than 0.1 μM.

[2] = Liver Microsome Stability Assay, human; format: in vitro ADME; conditions: human liver microsomes
Method: Two separate experiments were performed as follows.
With Cofactors (NADPH): 25 μL of 10 mM NADPH was added to the incubations. The final concentrations of microsomes and NADPH were 0.5 mg/mL and 1 mM, respectively. The final concentration of microsomes was 0.5 mg/mL. The mixture was pre-warmed at 37° C. for 10 minutes. The reaction was started with the addition of 2.5 μL of 100 μM control compound or test compound solutions. Verapamil was used as positive control in this study. The final concentration of test compound or control compound was 1 μM. The incubation solution was incubated in water batch at 37° C. Aliquots of 25 μL were taken from the reaction solution at 0.5, 5, 15, 30 and 60 minutes. The reaction was stopped by the addition of 5 volumes of cold acetonitrile with IS (200 nM caffeine and 100 nM tolbutamide). Samples were centrifuged at 3, 220 g for 40 minutes. Aliquot of 100 μL of the supernatant was mixed with 100 μL of ultra-pure H2O and then used for LC-MS/MS analysis.
Data Analysis: All calculations were carried out using Microsoft Excel. Peak areas were determined from extracted ion chromatograms. The slope value, k, was determined by linear regression of the natural logarithm of the remaining percentage of the parent drug vs. incubation time curve.
The in vitro half-life (in vitro t1/2) was determined from the slope value:
Conversion of the in vitro t1/2 (min) into the in vitro intrinsic clearance (in vitro CLint, in μL/min/mg protein) was done using the following equation (mean of duplicate determinations): […]
The calculations of Scaled-up CLint(mL/min/kg), Predicted CLH (mL/min/kg) and EH were done using the following equation:
Scaled-up CLint=(0.693/t1/2)×(1/(microsomal protein concentration(0.5 mg/mL)))×Scaling Factors;Predicted CLH=(QH×Scaled-up CLint×fub)/(QH+Scaled-up CLint×fub);EH=Predicted CLH/QH
where QH is the hepatic blood flow (mL/min/kg) (Table 32), • fub is the fraction of unbound drug in plasma which is assumed to be 1.
“+++” indicates a Clint value less than 10 mL/min/Kg, […] indicates a Clint between 10 and 20 mL/min/Kg, and “+” indicates a Clint above 20 mL/min/Kg.

AHR = target: T1, AHR (Homo sapiens, UniProt P35869); test: DRE-Luciferase Reporter Assay, HepG2 AhR-Lucia reporter cells; format: cell-based; conditions: with AHR activating ligand at EC50, read-out: HepG2-Luc IC50
T1 construct: other cell line with a DRE-luciferase reporter stably transfected; endogenous in cells; host or cells: HepG2 AhR-Lucia reporter cells
T1 sequence (P35869 11-848): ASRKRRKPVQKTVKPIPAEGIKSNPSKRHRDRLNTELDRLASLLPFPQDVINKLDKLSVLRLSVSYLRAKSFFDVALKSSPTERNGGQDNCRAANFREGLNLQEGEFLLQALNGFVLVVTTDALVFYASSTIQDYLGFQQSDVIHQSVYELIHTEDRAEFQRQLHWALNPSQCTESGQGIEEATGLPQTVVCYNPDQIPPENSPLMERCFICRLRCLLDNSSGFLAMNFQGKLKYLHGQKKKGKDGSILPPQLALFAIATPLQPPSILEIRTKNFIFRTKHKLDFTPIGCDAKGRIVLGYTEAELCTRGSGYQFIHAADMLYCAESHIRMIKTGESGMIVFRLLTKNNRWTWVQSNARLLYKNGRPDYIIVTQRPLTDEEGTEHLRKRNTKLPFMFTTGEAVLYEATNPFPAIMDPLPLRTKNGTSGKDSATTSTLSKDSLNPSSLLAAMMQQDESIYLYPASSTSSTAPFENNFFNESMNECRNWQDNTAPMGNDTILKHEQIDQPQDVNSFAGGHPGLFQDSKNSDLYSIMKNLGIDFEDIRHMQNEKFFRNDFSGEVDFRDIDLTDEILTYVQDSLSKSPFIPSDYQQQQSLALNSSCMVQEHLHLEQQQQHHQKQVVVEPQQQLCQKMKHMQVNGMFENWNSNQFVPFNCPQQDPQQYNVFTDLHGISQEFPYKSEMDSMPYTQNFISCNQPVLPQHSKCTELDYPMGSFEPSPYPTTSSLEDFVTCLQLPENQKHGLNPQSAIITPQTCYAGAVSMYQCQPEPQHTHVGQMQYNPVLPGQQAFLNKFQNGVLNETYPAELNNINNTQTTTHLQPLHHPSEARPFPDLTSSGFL
How it was run: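 Antagonism read as inhibition of agonist-driven secreted luciferase in stably DRE-reporter-transfected cells such as HepG2 AhR-Lucia. Agonist ligand at EC50 concentration added 1 hr post-plating alongside antagonist (log series, top 100 uM); supernatant read at 24 or 48 h, IC50 derived against agonist-only maximum.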

[3] = PBS pH 1.6, 25° C., read-out: Aq. Solubility at pH = 1.6
[4] = PBS pH 7.4, 25° C., read-out: Aq. Solubility at pH = 7.4

| solubility at 2 h [1, 3] | solubility at 2 h [1, 4] | IC50 (AHR) | SMILES | Human liver microsome clearance [2] |
| --- | --- | --- | --- | --- |
| ≥ 1 µM | 0.1 to 1 µM (≈ 0.0389 to 0.389 µg/mL) | < 0.1 µM | Cc1ccc(-c2cc3c(=O)n([C@@H](C)CO)cnc3c(-c3cccc(F)c3)n2)cc1 [Compound 48, 8-(3-fluorophenyl)-3-[(1S)-2-hydroxy-1-methyl-ethyl]-6-(p-tolyl)pyrido[3,4-d]pyrimidin-4-one] | +++ (“+++” indicates a Clint value less than 10 mL/min/Kg) |
| ≥ 1 µM | < 0.1 µM | < 0.1 µM | C[C@H](n1cnc2c(-c3cccnc3)nc(-c3ccc(Cl)cc3)cc2c1=O)C(C)(C)O [Compound 36] | +++ (“+++” indicates a Clint value less than 10 mL/min/Kg) |
